In BindingDB's records for patent US9353116 (University of California, 2016):

How the values were obtained:
[1] = target: T1, Proto-oncogene tyrosine-protein kinase Src [251-533,T338C] (Gallus gallus, UniProt P00523, T338C); assay: In vitro Kinase Assay; conditions: pH 8
T1 construct: 251-533
Procedure: (§1) In vitro kinase assays for c-Src variants were performed in 50 mM Tris (pH 8.0), 10 mM MgCl2 and 1 mg/mL BSA. When obtaining kinetic parameters (kcat, Km) kinase and peptide substrate (IYGEFKKK) (SEQ ID NO:51) concentrations were 2 nM and 500 μM, respectively, while ATP concentrations ranged from 2000-0.655 μM. Addition of nonradioactive ATP supplemented with 32P ATP (3,000 Ci/mmol, NEN) was used to initiate kinase reactions. Time points were selected such that product formation never exceeded 10%. Reactions were quenched by spotting 3 μL quantities onto phosphocellulose sheets (P81, Whatman). Afterwards, the sheets were washed 3×5 minutes in 0.5% phosphoric acid and dried. Radioactivity was measured by phosphorimaging and recorded on a Typhoon fluorescence imager (Molecular Dynamics).

[2] = target: T2, Proto-oncogene tyrosine-protein kinase Src [251-533] (Gallus gallus, UniProt P00523); assay: In vitro Kinase Assay; conditions: pH 8
T2 construct: 251-533
Procedure: as §1

Compound `CC(=O)c1cccc(Cc2nn(C(C)C)c3ncnc(N)c23)c1` [US9353116, 14] has an IC50 [1] of 4520 nM and an IC50 [2] greater than 5000 nM.
Compound `C=CS(=O)(=O)Nc1ccc(Nc2ncnc3cc(OC)c(OC)cc23)cc1` [US9353116, 20] has an IC50 [1] of 560 nM and an IC50 [2] of 2170 nM.
